Measured values reported in article PMC9490837, “Electronic Coupling in 1,2,3-Triazole Bridged Ferrocenes and Its Impact on Reactive Oxygen Species Generation and Deleterious Activity in Cancer Cells” (Inorganic Chemistry, 2022).
Values joined by “and” are separate entries in the source; they are usually repeats but may differ in a detail not shown here. Identical values can stand only once.

Columns and labels:
[1] = tested on: H1975 cells; test: Crystal violet cell viability / antiproliferative assay, H1975; assay type: cell-based, human; details: for Selectivity index SInd, H1975: IC50(BEAS-2B)/IC50(H1975); for IC50: human NSCLC H1975 cells, treatment time 72 h
Description: (§1) Human non-small-cell lung cancer cell lines A549 and H1975 and the human bronchial epithelial BEAS-2B cell line were purchased from ATCC (Manassas, VA). Cells were cultured in Roswell Park Memorial Institute (RPMI)-1640 media supplemented with 10% v/v fetal bovine serum, 100 U·mL^–1 penicillin, and 100 μg·mL^–1 streptomycin. Cells were grown in a humidified atmosphere at 37 °C and 5% CO2.
(§2) Crystal violet staining was used to assess cell viability. […] After 72 h, the medium was discarded and cells were stained for 30 min with 5% w/v crystal violet solution in 66% v/v methanol, 200 μL per well. After staining, the crystal violet solution was removed, and the 24-well plate was washed with water to eliminate the excess solution. When dried, the plates were photographed. Quantitation of crystal violet staining was performed after solubilizing the dye in 10% acetic acid, 400 μL per well, and reading the absorbance of each well at 540 nm (HT Synergy 96-well microplate reader, Bio-Tek Instruments, Winooski, VT). The relative absorbance of untreated cells was considered as 100% viability; results were expressed as a percentage of viable cells vs untreated cells.

[2] = tested on: A549 cells; test: Crystal violet cell viability / antiproliferative assay, A549; assay type: cell-based, human; details: for Selectivity index SInd, A549: IC50(BEAS-2B)/IC50(A549); for IC50: human NSCLC A549 cells, treatment time 72 h
Description: as §1, §2

[3] = tested on: BEAS-2B cells; test: Crystal violet cell viability / antiproliferative assay, BEAS-2B; assay type: cell-based, human; details: for IC50: nonmalignant human bronchial epithelium BEAS-2B cells, treatment time 72 h
Description: as §1, §2

[4] = tested on: A549 and H1975 cells; test: ROS generation, CM-H2DCFDA fluorimetric assay, statements covering both cancer cell lines; assay type: cell-based, human; details: 1 h; for Effect of NAC addition on ROS generation: 20 μM compound, 50 μM NAC; for ROS generation compared with cisplatin, tamoxifen and 5-fluorouracil: both cancer cell types, 20 μM
Description: (§3) Then, detached cells were resuspended in 0.5 mL of phosphate-buffered saline (PBS) containing 10 μM·L^–1 fluorescent probe 5-(and-6)-chloromethyl-2′,7′-dichlorodihydrofluorescein diacetate-acetyl ester (CM-H2DCFDA) and incubated for 15 min at 37 °C. Afterward, the incubation cells were centrifuged at 13,000 rpm for 30 s and resuspended in 0.5 mL of PBS. The fluorescence of each sample (index of ROS levels) was read at 488 nm (λexcitation) and 520 nm (λemission). The results were expressed as DCF fluorescence per mg cell proteins normalized vs control.

[5] = Cyclic voltammetry in dichloromethane; assay type: physicochemical; details: for KC comproportionation constant: KC = exp(nF/RT)ΔE1/2, 25 °C; for Difference between the formal potentials: first and second oxidation; for E1°′ formal potential / E2°′ formal potential / E3°′ formal potential: vs FcH/[FcH]+, CH2Cl2, 0.1 mol·L–1 [NBu4][B(C6F5)4], 25 °C, scan rate 100 mV·s–1
Description: Electrochemical studies of compounds 1a, 1c, 2a, and 2c were carried out using cyclic voltammetry (CV) and square-wave voltammetry (SWV) (Table 1; Figures 5 (compounds 1a, 2a) and S13 (compounds 1c, 2c), see the SI). A solution of [NBu4][B(C6F5)4] (0.1 mol·L^–1) in anhydrous CH2Cl2 was used as the supporting electrolyte.[79] The choice of the supporting electrolyte was motivated by the beneficial properties of [B(C6F5)4]^− ions. In contrast to smaller counter ions such as [Cl]^−, [PF6]^−, [BF4]^−, or [ClO4]^−, [B(C6F5)4]^− tolerates the stabilization of greatly charged species in solution, minimizing undesired ion-pairing effects.[80],[81] The voltammetry experiments were performed at 25 °C. All potentials are referenced to the FcH/[FcH]^+ (Fc = Fe(η^5-C5H4)(η^5-C5H5)) redox couple (E°′ = 0 mV).[82]
Measurements on 1.0 mmol·L^–1 solutions of analytes 1a, 1c, 2a, and 2c in anhydrous dichloromethane solutions, containing 0.1 mol·L^–1 [NBu4][B(C6F5)4] as the supporting electrolyte, were conducted under an atmosphere of argon at 25 °C. A three-electrode cell, which utilized a Pt auxiliary electrode, a glassy carbon working electrode (surface area 0.031 cm^2), and an Ag/Ag^+ (0.01 mol·L^–1 AgNO3) reference electrode, was used as described in refs ([82]) and ([102]−[104]). […] Experimental potentials were referenced against an Ag/Ag^+ reference electrode, but results presented are referenced against the ferrocene [FcH/FcH^+ couple = 220 mV vs Ag/Ag^+, ΔEp = 61 mV; FcH = Fe(η^5-C5H5)2] as an internal standard.[82] When decamethylferrocene [Fc* = Fe(η^5-C5Me5)2] was used as an internal standard, the experimentally measured potentials were converted into Evs FcH/FcH^+ (under our conditions, the Fc*/Fc*^+ couple was at −614 mV vs FcH/FcH^+, ΔEp = 60 mV).

[6] = tested on: H1975 cells; test: ROS generation, CM-H2DCFDA fluorimetric assay, H1975; assay type: cell-based, human; details: 20 μM, 1 h
Description: as §3

[7] = tested on: A549 cells; test: ROS generation, CM-H2DCFDA fluorimetric assay, A549; assay type: cell-based, human; details: 20 μM, 1 h
Description: as §3

[8] = versus cisplatin, tamoxifen, 5-fluorouracil

IC50 ([1]; NCI-H1975) [µM] | IC50 [2] [µM] | IC50 [1] [µM] | KC comproportionation constant [5] | Difference between the formal potentials [5] [mV] | E1°′ formal potential [5] | E2°′ formal potential [5] | E3°′ formal potential [5] | Compound | Selectivity index SInd, H1975 ([1]; 72 h) | Selectivity index SInd, A549 ([2]; 72 h) | IC50 [3] [µM] | Effect of NAC addition on ROS generation [4] | Increase of cell viability with NAC compared to cells treated only with compound ([1]; H1975 cells, 20 μM compound, 50 μM NAC, 72 h) [%] | Increase of cell viability with NAC compared to cells treated only with compound ([2]; A549 cells, 20 μM compound, 50 μM NAC, 72 h) | ROS generated, times more than 1c [6] | ROS generation, times more potent than reference drugs [6, 8] | Increase of cell viability with NAC compared to cells treated only with compound ([3]; BEAS-2B cells, 20 μM compound, 50 μM NAC, 72 h) | ROS generation compared with cisplatin, tamoxifen and 5-fluorouracil [4] | ROS generated, times more than 1c [7] [times] | ROS generation, times more potent than reference drugs [7, 8] [times]
32 ± 12 | 69 ± 21 | – | – | – | – | – | – | O=c1[nH]cc(F)c(=O)[nH]1 [5-fluorouracil, reference compound] | 0.2 | 0.1 | 6 ± 0.1 | almost no effect | – | – | – | – | – | – | – | –
– | 57 ± 18 | 5 ± 2 | 2412 | 200 | 80 mV and 80 (60) mV | 280 mV and 280 (66) mV | – | Cc1cn([C@H]2C[C@H](n3nnc(-[c-]4cccc4)c3C#C[c-]3cccc3)[C@@H](CO)O2)c(=O)[nH]c1=O.[Fe+2].[Fe+2].c1cc[cH-]c1.c1cc[cH-]c1 [compound 1a, 3′-Deoxy-3′-(4-ferrocenyl-5-ethynylferrocenyl-1H-1,2,3-triazol-1-yl)thymidine] | 93.8 | 8.2 | 469 ± 10 | – | ~20 | analogous increase | about 1.6 times | about 2 times | analogous increase | more effective ROS generators | ~2.5 | ~2.5
– | 230 ± 13 | 456 ± 17 | – | – | 60 mV and 60 (66) mV | – | – | Cc1cn([C@H]2C[C@H](n3cc(-[c-]4cccc4)nn3)[C@@H](CO)O2)c(=O)[nH]c1=O.[Fe+2].c1cc[cH-]c1 [compound 1c, 3′-Deoxy-3′-(4-ferrocenyl-1H-1,2,3-triazol-1-yl)thymidine] | 0.5 | 0.9 | 215 ± 7 | – | – | – | – | – | – | more effective ROS generators | – | –
– | 184 ± 7 | 84 ± 5 | 9426 | 235 | 45 mV and 45 (60) mV | 280 mV and 280 (61) mV | 365 mV and 365 (63) mV | O=C(CCn1nnc(-[c-]2cccc2)c1C#C[c-]1cccc1)[c-]1cccc1.[Fe+2].[Fe+2].[Fe+2].c1cc[cH-]c1.c1cc[cH-]c1.c1cc[cH-]c1 [compound 2a, 1-(3-Propionylferrocenyl)-4-ferrocenyl-5-ethynylferrocenyl-1H-1,2,3-triazole] | 3.0 | 1.4 | 257 ± 5 | – | – | – | – | – | – | – | – | –
– | 805 ± 72 | 122 ± 45 | – | – | 20 mV and 20 (61) mV | – | 330 mV and 330 (67) mV | O=C(CCn1cc(-[c-]2cccc2)nn1)[c-]1cccc1.[Fe+2].[Fe+2].c1cc[cH-]c1.c1cc[cH-]c1 [compound 2c, 1-(3-Propionyloferrocenyl)-4-ferrocenyl-1H-1,2,3-triazole] | 1.6 | 0.2 | 198 ± 7 | – | – | – | – | – | – | – | – | –
– | – | – | – | – | – | – | – | CC/C(=C(\c1ccccc1)c1ccc(OCCN(C)C)cc1)c1ccccc1 [tamoxifen] | – | – | – | almost no effect | – | – | – | – | – | – | – | –

Compound | IC50 ([1]; NCI-H1975) [µM] | IC50 [2] [µM] | IC50 [1] [µM] | KC comproportionation constant [5] | Difference between the formal potentials [5] [mV] | E1°′ formal potential [5] | E2°′ formal potential [5] | E3°′ formal potential [5] | Selectivity index SInd, H1975 ([1]; 72 h) | Selectivity index SInd, A549 ([2]; 72 h) | IC50 [3] [µM] | Effect of NAC addition on ROS generation [4] | Increase of cell viability with NAC compared to cells treated only with compound ([1]; H1975 cells, 20 μM compound, 50 μM NAC, 72 h) [%] | Increase of cell viability with NAC compared to cells treated only with compound ([2]; A549 cells, 20 μM compound, 50 μM NAC, 72 h) | ROS generated, times more than 1c [6] | ROS generation, times more potent than reference drugs [6, 8] | Increase of cell viability with NAC compared to cells treated only with compound ([3]; BEAS-2B cells, 20 μM compound, 50 μM NAC, 72 h) | ROS generation compared with cisplatin, tamoxifen and 5-fluorouracil [4] | ROS generated, times more than 1c [7] [times] | ROS generation, times more potent than reference drugs [7, 8] [times]
N.N.[Cl][Pt][Cl] [cisplatin, reference compound] | – | 108 ± 12 | 4 ± 0.1 | – | – | – | – | – | 0.7 | 0.02 | 3 ± 0.1 | almost no effect | – | – | – | – | – | – | – | –
